Laboratory results: patent US9447039B2, “Indole carboxamide derivatives and uses thereof” (priority 2012, dated 2016)
Converted amounts (≈) assume the structure as drawn.

Each molecule was assayed on Mycobacterium tuberculosis H37Rv (ATCC #27294) (assay: Minimum Inhibitory Concentration (MIC50) determination). Conditions: 120 h.
Format: cell-based
Description: Mycobacterium tuberculosis H37Rv (ATCC #27294) (Mtb) strain was maintained in Middlebrook 7H9 broth medium supplemented with 0.05% Tween 80 and 10% ADS supplement. ADS supplement contains 5% bovine serum albumin fraction V. 2% D-dextrose and 0.8% of sodium chloride. Middlebrook 7H11 agar medium supplemented with 10% OADC (oleic acid, albumin, dextrose and catalase) was used as solid media for growing Mtb. Stock solutions of the compounds were prepared using 90% DMSO.
Minimum Inhibitory Concentration (MIC50) Determination
In Table 5 below, MIC50 is defined as the lowest concentration of the compound that inhibited 50% growth of the wild type strain compared to untreated controls. Test compounds were two or three fold serially diluted in duplicates and spotted by mosquito HTS to 384-well clear plates, resulting in 10 dilutions of each compound. A volume of 50 μl of Mtb culture (final OD600 of 0.02) was added to each well, and the assay plates were incubated at 37° C. for 5 days. Growth of bacteria was measured by reading absorbance at 600 nm using a Spectramax M2 spectrophotometer. MIC50 values were determined by using Activity Base software.

First: Cc1cc(C)c2cc(C(=O)N[C@H]3CCC[C@@H](C)[C@H]3C)[nH]c2c1 [Example 4I, N-((1S,2R,3R)-2,3-Dimethylcyclohexyl)-4,6-dimethyl-1H-indole-2-carboxamide]
Second: Cc1cc(C)c2cc(C(=O)N[C@H]3CCC[C@H](C)[C@H]3C)[nH]c2c1 [Example 4E, N-((1S,2R,3S)-2,3-Dimethylcyclohexyl)-4,6-dimethyl-1H-indole-2-carboxamide]
The MIC50 of the first is 4-fold lower: 0.02 µM (≈ 0.00597 µg/mL) for the first, 0.08 µM (≈ 0.0239 µg/mL) for the second.

Going from `CC1CCC(NC(=O)c2cc3ccc(F)cc3[nH]2)CC1` (stereo not shown) [Example 4BF, 6-Fluoro-N-(4-methylcyclohexyl)-1H-indole-2-carboxamide] to `CC1CCC(NC(=O)c2cc3ccc(Cl)cc3[nH]2)CC1` (stereo not shown) [Example 4V, 6-Chloro-N-(4-methylcyclohexyl)-1H-indole-2-carboxamide], the MIC50 falls from 1.62 µM (≈ 0.444 µg/mL) to 0.2 µM (≈ 0.0582 µg/mL) (8.1-fold).

`COc1ccc2[nH]c(C(=O)N[C@@H]3CCCC[C@@H]3C)cc2c1` [Example 4AR, 5-Methoxy-N-((1R,2S)-2-methylcyclohexyl)-1H-indole-2-carboxamide] and `COc1ccc2cc(C(=O)N[C@@H]3CCCC[C@@H]3C)[nH]c2c1` [Example 4AM, 6-Methoxy-N-((1R,2S)-2-methylcyclohexyl)-1H-indole-2-carboxamide] are within 1.5-fold of each other in MIC50: 7.53 µM (≈ 2.16 µg/mL) for the first, 6.19 µM (≈ 1.77 µg/mL) for the second.

First: Cc1cc(C)c2cc(C(=O)NC(C)CCc3ccccc3)[nH]c2c1 (stereo not shown) [Example 3E, 4,6-Dimethyl-N-(4-phenylbutan-2-yl)-1H-indole-2-carboxamide]
Second: Cc1cc(C)c2cc(C(=O)Nc3ccccc3C)[nH]c2c1 [Example 3L, 4,6-Dimethyl-N-(o-tolyl)-1H-indole-2-carboxamide]
The MIC50 of the first is 1.8-fold higher: 5.74 µM (≈ 1.84 µg/mL) for the first, 3.12 µM (≈ 0.868 µg/mL) for the second.

Compared with `CC1CCC(NC(=O)c2cc3cccc(Cl)c3[nH]2)CC1` (stereo not shown) [Example 4X, 7-Chloro-N-(4-methylcyclohexyl)-1H-indole-2-carboxamide], `CC1CCC(NC(=O)c2cc3c(Cl)ccc(Cl)c3[nH]2)CC1` (stereo not shown) [Example 4U, 4,7-Dichloro-N-(4-methylcyclohexyl)-1H-indole-2-carboxamide] is 9.4-fold higher in MIC50: 0.9 µM (≈ 0.262 µg/mL) for the first, 8.42 µM (≈ 2.74 µg/mL) for the second.

First: CC1CCC(NC(=O)c2cc3c(C(F)(F)F)cc(C(F)(F)F)cc3[nH]2)CC1 (stereo not shown) [Example 4H, N-(4-Methylcyclohexyl)-4,6-bis(trifluoromethyl)-1H-indole-2-carboxamide]
Second: C[C@H]1CC[C@H](NC(=O)c2cc3c(F)cc(F)cc3[nH]2)CC1 [Example 4AU, 4,6-Difluoro-N-(trans-4-methylcyclohexyl)-1H-indole-2-carboxamide]
The MIC50 of the first is 1.8-fold lower: 0.32 µM (≈ 0.126 µg/mL) for the first, 0.56 µM (≈ 0.164 µg/mL) for the second.

First: Cc1cccc2[nH]c(C(=O)N[C@@H]3CCCC[C@@H]3C)cc12 [Example 4AA, 4-Methyl-N-((1R,2S)-2-methylcyclohexyl)-1H-indole-2-carboxamide]
Second: C[C@H]1CCCC[C@H]1NC(=O)c1cc2c(C#N)cccc2[nH]1 [Example 4AD, 4-Cyano-N-((1R,2S)-2-methylcyclohexyl)-1H-indole-2-carboxamide]
The MIC50 of the first is 3-fold lower: 0.25 µM (≈ 0.0676 µg/mL) for the first, 0.76 µM (≈ 0.214 µg/mL) for the second.

First: COc1cc2cc(C(=O)N[C@@H]3CCCC[C@@H]3C)[nH]c2cc1OC [Example 4AQ, 5,6-Dimethoxy-N-((1R,2S)-2-methylcyclohexyl)-1H-indole-2-carboxamide]
Second: COc1cc(OC)c2cc(C(=O)N[C@@H]3CCCC[C@@H]3C)[nH]c2c1 [Example 4AO, 4,6-Dimethoxy-N-((1R,2S)-2-methylcyclohexyl)-1H-indole-2-carboxamide]
The MIC50 of the first is 13-fold higher: 19.5 µM (≈ 6.17 µg/mL) for the first, 1.46 µM (≈ 0.462 µg/mL) for the second.

Compared with `C[C@H]1CC[C@H](NC(=O)c2cc3c(Cl)cc(Cl)cc3[nH]2)CC1` [Example 4S, 4,6-Dichloro-N-(trans-4-methylcyclohexyl)-1H-indole-2-carboxamide], `CC1CCC(NC(=O)c2cc3c(Cl)cc(Cl)cc3[nH]2)CC1` (stereo not shown) [Example 4G, 4,6-Dichloro-N-(4-methylcyclohexyl)-1H-indole-2-carboxamide] is 2.5-fold lower in MIC50: 0.14 µM (≈ 0.0455 µg/mL) for the first, 0.057 µM (≈ 0.0185 µg/mL) for the second.

Compared with `Cc1cc(C)c2cc(C(=O)NCC3CCCCC3)[nH]c2c1` [Example 3N, N-(Cyclohexylmethyl)-4,6-dimethyl-1H-indole-2-carboxamide], `Cc1cc(C)c2cc(C(=O)N[C@@H]3CCCC[C@@H]3C)[nH]c2c1` [Example 4A, 4,6-Dimethyl-N-((1R,2S)-2-methylcyclohexyl)-1H-indole-2-carboxamide] is 12-fold lower in MIC50: 0.87 µM (≈ 0.247 µg/mL) for the first, 0.07 µM (≈ 0.0199 µg/mL) for the second.

Going from `C[C@H]1CC[C@H](NC(=O)c2cc3c(C#N)cc(C#N)cc3[nH]2)CC1` [Example 4AV, 4,6-Dicyano-N-(trans-4-methylcyclohexyl)-1H-indole-2-carboxamide] to `C[C@H]1CC[C@@H](NC(=O)c2cc3c(Cl)cc(Cl)cc3[nH]2)CC1` [Example 4R, 4,6-Dichloro-N-(cis-4-methylcyclohexyl)-1H-indole-2-carboxamide], the MIC50 falls from 0.225 µM (≈ 0.0689 µg/mL) to 0.14 µM (≈ 0.0455 µg/mL) (1.6-fold).

First: C[C@H]1CCCC[C@H]1NC(=O)c1cc2cc3c(cc2[nH]1)OCO3 [Example 4AP, N-((1R,2S)-2-Methylcyclohexyl)-5H-[1,3]dioxolo[4,5-f]indole-6-carboxamide]
Second: Cc1cc(Br)c2cc(C(=O)N[C@@H]3CCCC[C@@H]3C)[nH]c2c1 [Example 4AI, 4-Bromo-6-methyl-N-((1R,2S)-2-methylcyclohexyl)-1H-indole-2-carboxamide]
The MIC50 of the first is 36-fold higher: 2.13 µM (≈ 0.64 µg/mL) for the first, 0.06 µM (≈ 0.021 µg/mL) for the second.

Going from `Cc1cc(Nc2ccccc2)cc2[nH]c(C(=O)N[C@@H]3CCCC[C@@H]3C)cc12` [Example 6A, 4-methyl-N-((1R,2S)-2-methylcyclohexyl)-6-(phenylamino)-1H-indole-2-carboxamide] to `Cc1cc(C)c2cc(C(=O)N[C@@H]3CCC[C@@H]3C)[nH]c2c1` [Example 4K, 4,6-Dimethyl-N-((1R,2S)-2-methylcyclopentyl)-1H-indole-2-carboxamide], the MIC50 rises from 0.145 µM (≈ 0.0524 µg/mL) to 0.69 µM (≈ 0.187 µg/mL) (4.8-fold).

Compared with `COc1ccc2[nH]c(C(=O)N[C@@H]3CCCC[C@@H]3C)cc2c1OC` [Example 4AN, 4,5-Dimethoxy-N-((1R,2S)-2-methylcyclohexyl)-1H-indole-2-carboxamide], `Cc1cc(C)c2cc(C(=O)NC3CCCCC3O)[nH]c2c1` (stereo not shown) [Example 4L, N-(2-Hydroxycyclohexyl)-4,6-dimethyl-1H-indole-2-carboxamide] is 2.9-fold higher in MIC50: 1.02 µM (≈ 0.323 µg/mL) for the first, 2.92 µM (≈ 0.837 µg/mL) for the second.

Compared with `N#Cc1ccc2cc(C(=O)NC3CCC(F)(F)CC3)[nH]c2c1` [Example 4AG, 6-Cyano-N-(4,4-difluorocyclohexyl)-1H-indole-2-carboxamide], `CC1(C)CCC(NC(=O)c2cc3c(F)cc(F)cc3[nH]2)CC1` [Example 2A, N-(4,4-Dimethylcyclohexyl)-4,6-difluoro-1H-indole-2-carboxamide] is 150-fold lower in MIC50: 3.36 µM (≈ 1.02 µg/mL) for the first, 0.023 µM (≈ 0.00705 µg/mL) for the second.

Compared with `Cc1cc(C)c2cc(C(=O)Nc3ccc(C(C)C)cc3)[nH]c2c1` [Example 3A, N-(4-Isopropylphenyl)-4,6-dimethyl-1H-indole-2-carboxamide], `Cc1cc(C)c2cc(C(=O)N[C@H]3CC[C@H](C(C)C)CC3)[nH]c2c1` [Example 4D, N-(trans-4-Isopropylcyclohexyl)-4,6-dimethyl-1H-indole-2-carboxamide] is 290-fold lower in MIC50: 8.67 µM (≈ 2.66 µg/mL) for the first, 0.03 µM (≈ 0.00937 µg/mL) for the second.

Compared with `Cc1cc(C)c2cc(C(=O)N[C@@H]3CCC[C@H](C)[C@@H]3C)[nH]c2c1` [Example 4B, N-((1R,2S,3S)-2,3-Dimethylcyclohexyl)-4,6-dimethyl-1H-indole-2-carboxamide], `O=C(NC1CCC(CF)CC1)c1cc2c(Cl)cc(Cl)cc2[nH]1` (stereo not shown) [Example 7A, 4,6-Dichloro-N-(4-(fluoromethyl)cyclohexyl)-1H-indole-2-carboxamide] is 14-fold higher in MIC50: 0.01 µM (≈ 0.00298 µg/mL) for the first, 0.14 µM (≈ 0.0481 µg/mL) for the second.
